Experiment [1] can be described thus: Inhibition of human recombinant cyclin D2-CDK4.
Experiment [2] deals with Cyclin-dependent kinase 2/cyclin A (Homo sapiens, UniProt P24941). Put plainly: Inhibition of human recombinant cyclin A-CDK2. The format is protein-complex assay.
Experiment [3] deals with Cyclin-dependent kinase 2 and 4 (CDK2 and CDK4) (Homo sapiens) (UniProt P11802+P24941). Put plainly: Selectivity for CDK4 over CDK2. The format is protein assay.
Another experiment concerns the target CDK6/cyclin D1 (Homo sapiens, UniProt Q00534). Put plainly: Inhibition of cyclin D1-CDK6 ser/thr kinase. It counts as protein-complex assay.
Experiment [4] addresses Tyrosine-protein kinase Lck (Homo sapiens, UniProt P06239). Nature of the experiment: Inhibition of Lck tyrosine kinase.
In experiment [5] the target is RAC-alpha serine/threonine-protein kinase (Homo sapiens, UniProt P31749). Put plainly: Inhibition of PKBalpha (Akt1) ser/thr kinase.
The target of experiment [6] is T1, Tyrosine-protein kinase ZAP-70 (Homo sapiens, UniProt P43403).
T1 sequence (P43403 whole entry): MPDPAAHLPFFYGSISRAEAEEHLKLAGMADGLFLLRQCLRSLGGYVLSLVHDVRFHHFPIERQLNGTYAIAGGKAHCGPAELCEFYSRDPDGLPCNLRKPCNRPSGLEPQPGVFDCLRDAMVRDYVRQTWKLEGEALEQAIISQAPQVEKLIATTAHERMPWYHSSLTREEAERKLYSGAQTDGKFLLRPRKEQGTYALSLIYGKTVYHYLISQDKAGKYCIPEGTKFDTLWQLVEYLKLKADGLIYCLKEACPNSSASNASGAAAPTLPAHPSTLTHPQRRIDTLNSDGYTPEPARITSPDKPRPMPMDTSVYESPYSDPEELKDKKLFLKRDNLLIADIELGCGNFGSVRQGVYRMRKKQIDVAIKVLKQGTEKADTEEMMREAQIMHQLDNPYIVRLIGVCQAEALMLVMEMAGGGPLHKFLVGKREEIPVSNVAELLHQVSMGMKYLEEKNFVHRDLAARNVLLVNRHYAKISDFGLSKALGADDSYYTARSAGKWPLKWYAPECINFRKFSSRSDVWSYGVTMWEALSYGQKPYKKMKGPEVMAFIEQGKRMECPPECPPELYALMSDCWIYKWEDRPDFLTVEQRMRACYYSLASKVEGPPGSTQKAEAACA
Put plainly: Inhibition of Zap70 tyrosine kinase.

Experiment [7] concerns the target Vascular endothelial growth factor receptor 1 (Homo sapiens, UniProt P17948). Nature of the experiment: Inhibition of Flt-1 tyrosine kinase.
A short description of experiment [8]: Inhibition of cyclin D2-CDK4 ser/thr kinase. Set-up: species or system Homo sapiens.
The target in a further experiment is CaM kinase II (Homo sapiens, UniProt Q13557+Q13555+Q13554+Q9UQM7). Put plainly: Inhibition of calcium/calmodulin-dependent protein kinase type II. It counts as protein assay.
Experiment [9] deals with Proto-oncogene tyrosine-protein kinase Src (Homo sapiens, UniProt P12931). Put plainly: Inhibition of Src tyrosine kinase.
The target of experiment [10] is Dual specificity mitogen-activated protein kinase kinase 1 (Homo sapiens, UniProt Q02750). Nature of the experiment: Inhibition of mitogen activated protein kinase kinase 1.
Another experiment deals with Protein kinase C (PKC). Put plainly: Inhibition of PKC ser/thr kinase. It counts as protein assay, Homo sapiens.
For experiment [11], the target named is Mitogen-activated protein kinase 3 (Homo sapiens, UniProt P27361). Nature of the experiment: Inhibition of ERK1 ser/thr kinase.
Experiment [12] concerns the target Mitogen-activated protein kinase 14 (Homo sapiens, UniProt Q16539). Put plainly: Inhibition of p38-alpha ser/thr kinase.
Experiment [13] concerns the target cAMP-dependent protein kinase (PKA) (Homo sapiens, UniProt P22694+P17612+P22612). Put plainly: Inhibition of PKA ser/thr kinase. It counts as protein assay.
In experiment [14] the target is Platelet-derived growth factor receptor beta (Homo sapiens, UniProt P09619). Nature of the experiment: Inhibition of PDGFRbeta tyrosine kinase.
Experiment [15] concerns the target Fibroblast growth factor receptor 1 (Homo sapiens, UniProt P11362). Put plainly: Inhibition of fibroblast growth factor receptor 1.
The species entered for a further experiment is Homo sapiens. Put plainly: Selectivity for CDK4 over CDK1.
The target in experiment [16] is Cyclin-dependent kinase 1/cyclin B (Homo sapiens, UniProt P06493). Put plainly: Inhibition of human recombinant cyclin B-CDK1. It counts as protein-complex assay.

Mitogen-activated protein kinase 14, sequence (Q16539 whole entry): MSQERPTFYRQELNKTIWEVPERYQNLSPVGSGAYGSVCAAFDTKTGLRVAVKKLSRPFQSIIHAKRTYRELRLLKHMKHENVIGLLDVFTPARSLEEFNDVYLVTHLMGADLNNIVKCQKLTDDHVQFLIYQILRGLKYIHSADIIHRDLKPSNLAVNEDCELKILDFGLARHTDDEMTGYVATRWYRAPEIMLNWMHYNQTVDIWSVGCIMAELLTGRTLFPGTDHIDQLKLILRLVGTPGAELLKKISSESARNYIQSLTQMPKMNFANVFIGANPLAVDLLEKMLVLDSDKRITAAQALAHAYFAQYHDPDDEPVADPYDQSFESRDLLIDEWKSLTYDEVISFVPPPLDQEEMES
Tyrosine-protein kinase Lck, sequence (P06239 whole entry): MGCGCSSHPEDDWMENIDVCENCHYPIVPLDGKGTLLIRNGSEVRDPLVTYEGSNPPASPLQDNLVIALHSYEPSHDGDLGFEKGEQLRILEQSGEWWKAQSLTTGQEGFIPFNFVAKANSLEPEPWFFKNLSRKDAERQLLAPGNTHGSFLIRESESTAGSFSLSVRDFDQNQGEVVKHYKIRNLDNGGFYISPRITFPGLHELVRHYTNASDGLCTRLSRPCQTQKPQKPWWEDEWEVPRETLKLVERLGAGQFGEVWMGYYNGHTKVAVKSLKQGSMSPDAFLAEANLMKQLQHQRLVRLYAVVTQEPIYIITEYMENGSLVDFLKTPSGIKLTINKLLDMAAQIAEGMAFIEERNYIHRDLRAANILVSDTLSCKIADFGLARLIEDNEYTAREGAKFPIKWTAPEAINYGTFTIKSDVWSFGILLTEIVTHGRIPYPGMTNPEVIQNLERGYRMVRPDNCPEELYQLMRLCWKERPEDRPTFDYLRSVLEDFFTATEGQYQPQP
RAC-alpha serine/threonine-protein kinase, sequence (P31749 whole entry): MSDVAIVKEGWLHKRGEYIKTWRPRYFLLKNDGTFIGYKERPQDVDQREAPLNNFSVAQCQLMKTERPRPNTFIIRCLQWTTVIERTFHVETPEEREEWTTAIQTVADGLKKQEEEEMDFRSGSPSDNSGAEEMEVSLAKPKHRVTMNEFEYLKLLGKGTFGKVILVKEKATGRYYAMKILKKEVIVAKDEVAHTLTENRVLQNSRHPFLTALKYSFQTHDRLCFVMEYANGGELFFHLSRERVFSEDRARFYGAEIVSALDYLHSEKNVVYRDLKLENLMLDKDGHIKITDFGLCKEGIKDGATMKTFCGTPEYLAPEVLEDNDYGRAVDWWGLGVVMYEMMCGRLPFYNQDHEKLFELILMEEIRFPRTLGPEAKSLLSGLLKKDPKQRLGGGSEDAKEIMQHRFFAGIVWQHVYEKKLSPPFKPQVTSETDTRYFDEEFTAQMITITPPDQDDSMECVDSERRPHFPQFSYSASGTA
Vascular endothelial growth factor receptor 1, sequence (P17948 whole entry): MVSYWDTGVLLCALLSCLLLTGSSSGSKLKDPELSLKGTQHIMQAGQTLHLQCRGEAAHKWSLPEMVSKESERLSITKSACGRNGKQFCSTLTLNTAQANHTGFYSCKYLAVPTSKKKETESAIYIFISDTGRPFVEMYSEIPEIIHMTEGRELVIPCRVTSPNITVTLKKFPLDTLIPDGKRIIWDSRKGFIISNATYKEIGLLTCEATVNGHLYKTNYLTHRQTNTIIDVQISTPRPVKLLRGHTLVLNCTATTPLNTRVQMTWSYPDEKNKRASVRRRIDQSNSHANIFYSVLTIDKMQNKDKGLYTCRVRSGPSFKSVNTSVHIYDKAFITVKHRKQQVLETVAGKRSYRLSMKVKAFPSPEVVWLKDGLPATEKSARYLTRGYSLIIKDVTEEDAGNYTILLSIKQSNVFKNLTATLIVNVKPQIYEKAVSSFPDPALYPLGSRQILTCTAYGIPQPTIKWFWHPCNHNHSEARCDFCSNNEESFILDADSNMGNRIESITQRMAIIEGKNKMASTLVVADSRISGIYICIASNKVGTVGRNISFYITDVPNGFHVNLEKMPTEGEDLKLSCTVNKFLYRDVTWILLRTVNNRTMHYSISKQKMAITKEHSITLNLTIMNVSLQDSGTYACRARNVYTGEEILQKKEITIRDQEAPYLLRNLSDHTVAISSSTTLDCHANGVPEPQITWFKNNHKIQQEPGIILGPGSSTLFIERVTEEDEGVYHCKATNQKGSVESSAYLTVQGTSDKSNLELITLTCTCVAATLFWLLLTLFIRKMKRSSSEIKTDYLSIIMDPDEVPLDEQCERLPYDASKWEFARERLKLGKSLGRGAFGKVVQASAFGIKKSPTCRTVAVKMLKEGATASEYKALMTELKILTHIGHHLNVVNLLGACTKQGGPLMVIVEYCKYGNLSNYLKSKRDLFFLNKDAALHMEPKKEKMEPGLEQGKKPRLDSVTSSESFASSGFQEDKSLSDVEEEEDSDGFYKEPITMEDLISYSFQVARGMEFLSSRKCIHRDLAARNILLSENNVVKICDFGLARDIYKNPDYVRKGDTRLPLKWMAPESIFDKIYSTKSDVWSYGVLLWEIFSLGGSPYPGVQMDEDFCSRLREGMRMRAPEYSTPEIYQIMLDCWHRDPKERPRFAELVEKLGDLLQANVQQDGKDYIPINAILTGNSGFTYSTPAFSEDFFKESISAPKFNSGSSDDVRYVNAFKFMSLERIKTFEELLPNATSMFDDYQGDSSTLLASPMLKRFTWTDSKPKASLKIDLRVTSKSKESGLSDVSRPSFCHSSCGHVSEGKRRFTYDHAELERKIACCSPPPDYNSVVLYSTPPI
Dual specificity mitogen-activated protein kinase kinase 1, sequence (Q02750 whole entry): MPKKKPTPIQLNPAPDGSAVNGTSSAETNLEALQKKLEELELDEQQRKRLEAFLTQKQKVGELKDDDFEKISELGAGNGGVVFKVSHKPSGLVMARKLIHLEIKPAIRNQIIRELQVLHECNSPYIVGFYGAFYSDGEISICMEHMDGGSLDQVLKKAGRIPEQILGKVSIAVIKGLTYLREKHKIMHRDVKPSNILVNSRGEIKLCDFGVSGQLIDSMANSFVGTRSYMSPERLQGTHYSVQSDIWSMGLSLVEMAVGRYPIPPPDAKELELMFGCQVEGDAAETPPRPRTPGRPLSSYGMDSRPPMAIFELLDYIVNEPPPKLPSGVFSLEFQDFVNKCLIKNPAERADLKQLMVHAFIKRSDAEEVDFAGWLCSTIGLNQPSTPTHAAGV
CDK6/cyclin D1, sequence (P24385 whole entry): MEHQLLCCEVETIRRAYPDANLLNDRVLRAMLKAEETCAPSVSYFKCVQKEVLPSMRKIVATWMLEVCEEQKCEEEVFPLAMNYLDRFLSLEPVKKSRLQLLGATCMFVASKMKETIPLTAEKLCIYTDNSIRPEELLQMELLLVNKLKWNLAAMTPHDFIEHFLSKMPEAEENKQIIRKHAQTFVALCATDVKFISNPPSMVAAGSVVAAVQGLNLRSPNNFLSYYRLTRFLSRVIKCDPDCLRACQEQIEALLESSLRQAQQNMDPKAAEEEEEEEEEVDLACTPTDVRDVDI
CDK6/cyclin D1, sequence (Q00534 whole entry): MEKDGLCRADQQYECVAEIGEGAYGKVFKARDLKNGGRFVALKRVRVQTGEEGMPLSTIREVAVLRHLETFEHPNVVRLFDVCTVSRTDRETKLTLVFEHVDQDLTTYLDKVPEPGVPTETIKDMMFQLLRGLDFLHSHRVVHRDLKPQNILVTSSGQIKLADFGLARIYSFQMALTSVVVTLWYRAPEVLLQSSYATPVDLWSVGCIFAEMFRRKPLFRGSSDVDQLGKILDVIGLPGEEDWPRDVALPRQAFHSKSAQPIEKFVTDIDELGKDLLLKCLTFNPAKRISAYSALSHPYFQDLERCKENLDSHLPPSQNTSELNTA
Platelet-derived growth factor receptor beta, sequence (P09619 whole entry): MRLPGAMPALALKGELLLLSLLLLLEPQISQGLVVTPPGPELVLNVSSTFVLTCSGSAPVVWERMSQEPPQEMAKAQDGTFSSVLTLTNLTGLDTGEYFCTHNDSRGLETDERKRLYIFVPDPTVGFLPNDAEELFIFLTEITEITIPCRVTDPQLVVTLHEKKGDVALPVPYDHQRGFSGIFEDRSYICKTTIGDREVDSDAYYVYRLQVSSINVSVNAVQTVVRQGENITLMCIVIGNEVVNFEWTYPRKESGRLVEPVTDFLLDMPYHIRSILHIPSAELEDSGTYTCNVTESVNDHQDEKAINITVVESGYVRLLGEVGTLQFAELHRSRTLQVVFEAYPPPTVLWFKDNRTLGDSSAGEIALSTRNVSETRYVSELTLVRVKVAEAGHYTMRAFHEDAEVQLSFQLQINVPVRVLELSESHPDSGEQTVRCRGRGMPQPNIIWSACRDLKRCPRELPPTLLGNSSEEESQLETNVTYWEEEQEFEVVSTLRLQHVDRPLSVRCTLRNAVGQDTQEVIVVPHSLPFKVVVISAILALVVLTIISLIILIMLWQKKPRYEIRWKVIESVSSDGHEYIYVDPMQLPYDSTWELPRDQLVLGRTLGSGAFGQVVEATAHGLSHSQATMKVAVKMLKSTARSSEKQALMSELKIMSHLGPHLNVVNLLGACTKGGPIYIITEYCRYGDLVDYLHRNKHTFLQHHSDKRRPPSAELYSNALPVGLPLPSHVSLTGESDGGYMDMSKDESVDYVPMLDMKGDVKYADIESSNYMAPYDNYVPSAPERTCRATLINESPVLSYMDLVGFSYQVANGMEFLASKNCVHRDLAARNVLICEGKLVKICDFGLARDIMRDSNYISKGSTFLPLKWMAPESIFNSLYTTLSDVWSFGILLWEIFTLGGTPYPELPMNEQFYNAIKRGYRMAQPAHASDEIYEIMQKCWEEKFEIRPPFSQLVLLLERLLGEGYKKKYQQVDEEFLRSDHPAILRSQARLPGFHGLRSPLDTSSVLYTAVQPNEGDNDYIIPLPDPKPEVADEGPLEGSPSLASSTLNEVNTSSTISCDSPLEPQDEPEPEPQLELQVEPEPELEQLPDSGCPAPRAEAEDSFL

In the case of `O=C(Nc1cc(CNC2CCCCC2)[nH]n1)Nc1cccc2c1C1CCCN1C2=O` (stereo unspecified), the IC50 (as a rule, the concentration that gives 50% inhibition) in experiment [1] worked out at 0.72 µM; in experiment [2], 20 µM. In [3], this molecule came in with a Selectivity of 27.
Turning to `O=C(Nc1ccccn1)Nc1cccc2c1[C@H]1CCCN1C2=O`, the IC50 is 0.071 µM against CDK6/cyclin D1; 2.3 µM in [4]; above 10 µM in [5]; above 10 µM in experiment [6]; 2.8 µM in experiment [7]; 0.042 µM in experiment [8]. In addition, the IC50 on CaM kinase II was above 10 µM; in experiment [9] it was above 5 µM; in [10] it was above 10 µM; against Protein kinase C (PKC), above 20 µM; in experiment [11], above 10 µM; in experiment [12], above 10 µM. In addition, the results for the IC50 in experiment [13], in experiment [14] and in [15] were above 20 µM, 5 µM and 6.7 µM, respectively.
In the case of `O=C(Nc1cc(CNC2CCCC2)[nH]n1)Nc1cccc2c1C1CCCN1C2=O` (stereo unspecified), the IC50 in experiment [1] came out at 0.065 µM. The molecule further yielded a Selectivity in [3] of 150.
Regarding `O=C(Nc1cc[nH]n1)Nc1cccc2c1[C@@H]1CCCN1C2=O`, the IC50 in experiment [1] worked out at 0.029 µM.
As to `O=C(Nc1cc([C@@H]2CCCN2)[nH]n1)Nc1cccc2c1[C@H]1CCCN1C2=O`, the Selectivity in the experiment filed under Homo sapiens amounted to 140; in experiment [3] it was 110. The IC50 was 0.22 µM in experiment [1], 25 µM in experiment [2] and 31 µM in experiment [16].
`O=C(Nc1cc([C@@H]2CCCN2)[nH]n1)Nc1cccc2c1[C@@H]1CCCN1C2=O`: the Selectivity in the experiment listed under Homo sapiens turned out to be 130; in experiment [3], 120. Moreover, in experiment [1], the IC50 was 0.21 µM.
Take `CC(C)(C)NCc1cc(NC(=O)Nc2cccc3c2C2CCCN2C3=O)[nH]n1` (stereo unspecified): the IC50 in experiment [1] turned out to be 0.056 µM; in [2], 9.8 µM. This molecule displayed a Selectivity in experiment [3] of 180.
As to `O=C(Nc1cc([C@@H]2CCCN2)n[nH]1)Nc1cccc2c1[C@@H]1CCCN1C2=O`, the IC50 was 25 µM in experiment [2] and 28 µM in [16].
Consider `CNCc1cc(NC(=O)Nc2cccc3c2C2CCCN2C3=O)[nH]n1` (stereo unspecified), for which the IC50 in experiment [1] stood at 0.29 µM; in experiment [2], 14 µM. Moreover, the Selectivity in [3] came to 48.
For the molecule `O=C(Nc1cc(CNC2CCCC2)n[nH]1)Nc1cccc2c1C1CCCN1C2=O` (stereo unspecified), in [2], the IC50 came out at 9.7 µM.
As to `CCCNCc1cc(NC(=O)Nc2cccc3c2C2CCCN2C3=O)[nH]n1` (stereo unspecified), the IC50 in [1] was determined as 0.16 µM; in experiment [2], 12 µM. The molecule further displayed a Selectivity in [3] of 75.
Regarding `O=C(Nc1cc[nH]n1)Nc1cccc2c1[C@H]1CCCN1C2=O`, the IC50 in experiment [1] is 0.021 µM.
For the molecule `CC(C)NCc1cc(NC(=O)Nc2cccc3c2C2CCCN2C3=O)[nH]n1` (stereo unspecified), the IC50 was determined as 0.13 µM in experiment [1] and 17 µM in experiment [2]. For the same molecule, the Selectivity in [3] came to 130.
For `O=C(Nc1cc(CN2CCCCC2)[nH]n1)Nc1cccc2c1C1CCCN1C2=O` (stereo unspecified), in that order: 0.25 µM, 12 µM and 48.
Take `O=C(Nc1cc(CN2CCCC2)[nH]n1)Nc1cccc2c1C1CCCN1C2=O` (stereo unspecified): the figures for the IC50 in [1] and in experiment [2] were 0.47 µM and 7.5 µM, respectively. This molecule also came in with a Selectivity in [3] of 16.

The record behind these values is ChEMBL document CHEMBL1134322, “A novel approach for the development of selective Cdk4 inhibitors: library design based on locations of Cdk4 specific amino acid residues” (J Med Chem, 2001).
